Reference: patent US20260015315A1, “AMINO LIPID COMPOUND, PREPARATION METHOD THEREFOR, COMPOSITION THEREOF AND APPLICATION THEREOF” (SHENZHEN SHENXIN BIOTECHNOLOGY CO., LTD., priority 2022, published 2026)

The molecules below were run on BALB/c mice (assay: In vivo delivery of lipid nanoparticle encapsulating luciferase mRNA (Fluc mRNA), IVIS imaging). Conditions: Fluc mRNA-LNP (amino lipid:DSPC:CHO-HP:PEG2000-DMG 48:10:40.5:1.5), 75 μL tail vein IV, female BALB/c mice, IVIS 6 hours after injection, whole body.
Method: The amino lipid compound of the present disclosure, a helper lipid, a structural lipid, and a PEG-lipid were separately dissolved in absolute ethanol to prepare respective solutions at concentrations of 20 mg/mL, 10 mg/mL, 20 mg/mL, and 25 mg/mL, respectively. The above four solutions were pipetted at a molar ratio of the amino lipid compound: DSPC:CHO-HP:PEG2000-DMG of 48:10:40.5:1.5, and mixed well to prepare an alcohol phase.
(2) Encapsulation: The water phase and the alcohol phase were injected into a microfluidic chip at a flow rate of water phase:alcohol phase=12 mL/min: 4 mL/min by using a microfluidic preparation instrument (MPE-L2), and encapsulation was carried out at a flow rate of water phase:alcohol phase=9 mL/min: 3 mL/min to obtain mRNA-encapsulating lipid nanoparticle (mRNA-LNP).
(3) Dialysis: The product of step (2) was loaded in a dialysis bag and placed in a Tris Buffer-8% sucrose solution for replacement to remove ingredients such as residual ethanol, unassembled lipids. Dialysis was conducted for 2 h with magnetic stirring at room temperature and under protection from light (dialysate was replaced every 1 hour).
(4) The product of step (3) was sterilized by passing through a 0.22 μm microporous membrane, and then packaged.
Lipid nanoparticle formulations encapsulating Flue mRNA were prepared, with a concentration of Flue mRNA of 0.2 μg/μL, a mass ratio of Flue mRNA to Lipid of 1:10, a particle size of 80-130 nm, and a encapsulation efficiency of 80% or higher.
• Animal preparation: Female BALB/c mice of 6-8 weeks old were selected and raised in an SPF grade breeding room. Animal testing was conducted in strict accordance with the guidelines of national health institutions and animal ethics requirements.
In vivo Delivery: prior to injection of the test LNP formulations, the LNP formulations were gently and repeatedly inverted to thoroughly mix the formulation samples. A corresponding amount of the formulation samples were aspirated with a 1 ml insulin syringe, and the LNP formulations were injected by tail vein injection (IV), with 3 mice in duplicate per formulation. Each mouse was injected with 75 μL of the luciferase mRNA (Flue mRNA)-encapsulating lipid nanoparticle formulation prepared in Experimental Example 1.
6 hours after injection of LNP formulations, mice were injected with 200 μL D-Luciferin luciferase developing substrate (Catalog No. 122799; Manufacturer: Perkin Elmer). After the substrate was injected, the mice were anesthetized by injection of 200 μl of 2.5% avertin, and the injection time of luciferase developing substrate was recorded.
The fluorescence expression intensity induced by the lipid nanoparticle encapsulating luciferase mRNA (Flue mRNA) with a representative amino lipid compound is shown in Table 4, with the amino lipid compound 118 as a control.

SMILES	Total flux (fluorescence expression intensity)
CCCCCCC(CCCCCC)OC(=O)CCCCCCCCC(CCCCCCCCC(=O)OC(CCCCCC)CCCCCC)N(CCCN(C)C)C(=O)CCCOCCCCC [compound 130]	5.73E+07
CCCCCCOCCCC(=O)N(CCCN(C)C)C(CCCCCCCCC(=O)OC(CCCCCC)CCCCCC)CCCCCCCCC(=O)OC(CCCCCC)CCCCCC [compound 131]	3.26E+07
CCCCCCCCOCCCC(=O)N(CCCN(C)C)C(CCCCCCCCC(=O)OC(CCCCCC)CCCCCC)CCCCCCCCC(=O)OC(CCCCCC)CCCCCC [compound 133]	3.58E+07
CCCCCCCOCCCC(=O)N(CCN(C)C)C(CCCCCCCCC(=O)OC(CCCCCC)CCCCCC)CCCCCCCCC(=O)OC(CCCCCC)CCCCCC [compound 157]	2.80E+07
CCCCCCC(CCCCCC)OC(=O)CCCCCCCCC(CCCCCCCCC(=O)OC(CCCCCC)CCCCCC)N(CCCCN(C)C)C(=O)COCCCC [compound 166]	1.25E+07
CCCCCCC(CCCCCC)OC(=O)CCCCCCCCC(CCCCCCCCC(=O)OC(CCCCCC)CCCCCC)N(CCCCN(C)C)C(=O)COCCCCC [compound 167]	4.02E+07
CCCCCCOCC(=O)N(CCCCN(C)C)C(CCCCCCCCC(=O)OC(CCCCCC)CCCCCC)CCCCCCCCC(=O)OC(CCCCCC)CCCCCC [compound 168]	2.68E+07
CCCCCCCOCC(=O)N(CCCCN(C)C)C(CCCCCCCCC(=O)OC(CCCCCC)CCCCCC)CCCCCCCCC(=O)OC(CCCCCC)CCCCCC [compound 169]	1.17E+07

Same assay, conditions: Fluc mRNA-LNP, 75 μL tail vein IV, female BALB/c mice, IVIS 6 hours after injection, liver

SMILES	Liver (fluorescence expression intensity)
CCCCCCCOCCCC(=O)N(CCN(C)C)C(CCCCCCCCC(=O)OC(CCCCCC)CCCCCC)CCCCCCCCC(=O)OC(CCCCCC)CCCCCC [compound 157]	1.07E+07
CCCCCCC(CCCCCC)OC(=O)CCCCCCCCC(CCCCCCCCC(=O)OC(CCCCCC)CCCCCC)N(CCCCN(C)C)C(=O)COCCCC [compound 166]	7.74E+06
CCCCCCC(CCCCCC)OC(=O)CCCCCCCCC(CCCCCCCCC(=O)OC(CCCCCC)CCCCCC)N(CCCCN(C)C)C(=O)COCCCCC [compound 167]	4.42E+06
CCCCCCOCC(=O)N(CCCCN(C)C)C(CCCCCCCCC(=O)OC(CCCCCC)CCCCCC)CCCCCCCCC(=O)OC(CCCCCC)CCCCCC [compound 168]	9.12E+06
CCCCCCCOCC(=O)N(CCCCN(C)C)C(CCCCCCCCC(=O)OC(CCCCCC)CCCCCC)CCCCCCCCC(=O)OC(CCCCCC)CCCCCC [compound 169]	6.59E+06

Same assay, conditions: Fluc mRNA-LNP, 75 μL tail vein IV, female BALB/c mice, IVIS 6 hours after injection, spleen

SMILES	Spleen (fluorescence expression intensity)
CCCCCCC(CCCCCC)OC(=O)CCCCCCCCC(CCCCCCCCC(=O)OC(CCCCCC)CCCCCC)N(CCCN(C)C)C(=O)CCCOCCCCC [compound 130]	1.13E+07
CCCCCCOCCCC(=O)N(CCCN(C)C)C(CCCCCCCCC(=O)OC(CCCCCC)CCCCCC)CCCCCCCCC(=O)OC(CCCCCC)CCCCCC [compound 131]	6.59E+06
CCCCCCCCOCCCC(=O)N(CCCN(C)C)C(CCCCCCCCC(=O)OC(CCCCCC)CCCCCC)CCCCCCCCC(=O)OC(CCCCCC)CCCCCC [compound 133]	1.25E+07
CCCCCCCOCCCC(=O)N(CCN(C)C)C(CCCCCCCCC(=O)OC(CCCCCC)CCCCCC)CCCCCCCCC(=O)OC(CCCCCC)CCCCCC [compound 157]	2.26E+05
CCCCCCC(CCCCCC)OC(=O)CCCCCCCCC(CCCCCCCCC(=O)OC(CCCCCC)CCCCCC)N(CCCCN(C)C)C(=O)COCCCC [compound 166]	8.07E+06
CCCCCCC(CCCCCC)OC(=O)CCCCCCCCC(CCCCCCCCC(=O)OC(CCCCCC)CCCCCC)N(CCCCN(C)C)C(=O)COCCCCC [compound 167]	7.64E+06
CCCCCCOCC(=O)N(CCCCN(C)C)C(CCCCCCCCC(=O)OC(CCCCCC)CCCCCC)CCCCCCCCC(=O)OC(CCCCCC)CCCCCC [compound 168]	8.95E+06
CCCCCCCOCC(=O)N(CCCCN(C)C)C(CCCCCCCCC(=O)OC(CCCCCC)CCCCCC)CCCCCCCCC(=O)OC(CCCCCC)CCCCCC [compound 169]	5.11E+06

Same assay, conditions: Fluc mRNA-LNP, tail vein IV, BALB/c mice, 6 hours

SMILES	(Spleen/Total Flux) * 100% [%]
CCCCCCC(CCCCCC)OC(=O)CCCCCCCCC(CCCCCCCCC(=O)OC(CCCCCC)CCCCCC)N(CCCN(C)C)C(=O)CCCOCCCCC [compound 130]	19.72
CCCCCCOCCCC(=O)N(CCCN(C)C)C(CCCCCCCCC(=O)OC(CCCCCC)CCCCCC)CCCCCCCCC(=O)OC(CCCCCC)CCCCCC [compound 131]	20.21
CCCCCCCCOCCCC(=O)N(CCCN(C)C)C(CCCCCCCCC(=O)OC(CCCCCC)CCCCCC)CCCCCCCCC(=O)OC(CCCCCC)CCCCCC [compound 133]	34.92
CCCCCCCOCCCC(=O)N(CCN(C)C)C(CCCCCCCCC(=O)OC(CCCCCC)CCCCCC)CCCCCCCCC(=O)OC(CCCCCC)CCCCCC [compound 157]	0.81
CCCCCCC(CCCCCC)OC(=O)CCCCCCCCC(CCCCCCCCC(=O)OC(CCCCCC)CCCCCC)N(CCCCN(C)C)C(=O)COCCCC [compound 166]	64.56
CCCCCCC(CCCCCC)OC(=O)CCCCCCCCC(CCCCCCCCC(=O)OC(CCCCCC)CCCCCC)N(CCCCN(C)C)C(=O)COCCCCC [compound 167]	19.00
CCCCCCOCC(=O)N(CCCCN(C)C)C(CCCCCCCCC(=O)OC(CCCCCC)CCCCCC)CCCCCCCCC(=O)OC(CCCCCC)CCCCCC [compound 168]	33.40
CCCCCCCOCC(=O)N(CCCCN(C)C)C(CCCCCCCCC(=O)OC(CCCCCC)CCCCCC)CCCCCCCCC(=O)OC(CCCCCC)CCCCCC [compound 169]	43.68

Same assay, conditions: Fluc mRNA-LNP, tail vein IV, BALB/c mice, 6 hours; relative to Compound 118

SMILES	Multiple of spleen delivery/total delivery (Spleen/Total Flux) to Compound 118
CCCCCCC(CCCCCC)OC(=O)CCCCCCCCC(CCCCCCCCC(=O)OC(CCCCCC)CCCCCC)N(CCCN(C)C)C(=O)CCCOCCCCC [compound 130]	17.30
CCCCCCOCCCC(=O)N(CCCN(C)C)C(CCCCCCCCC(=O)OC(CCCCCC)CCCCCC)CCCCCCCCC(=O)OC(CCCCCC)CCCCCC [compound 131]	17.73
CCCCCCCCOCCCC(=O)N(CCCN(C)C)C(CCCCCCCCC(=O)OC(CCCCCC)CCCCCC)CCCCCCCCC(=O)OC(CCCCCC)CCCCCC [compound 133]	30.63
CCCCCCCOCCCC(=O)N(CCN(C)C)C(CCCCCCCCC(=O)OC(CCCCCC)CCCCCC)CCCCCCCCC(=O)OC(CCCCCC)CCCCCC [compound 157]	0.71
CCCCCCC(CCCCCC)OC(=O)CCCCCCCCC(CCCCCCCCC(=O)OC(CCCCCC)CCCCCC)N(CCCCN(C)C)C(=O)COCCCC [compound 166]	56.63
CCCCCCC(CCCCCC)OC(=O)CCCCCCCCC(CCCCCCCCC(=O)OC(CCCCCC)CCCCCC)N(CCCCN(C)C)C(=O)COCCCCC [compound 167]	16.67
CCCCCCOCC(=O)N(CCCCN(C)C)C(CCCCCCCCC(=O)OC(CCCCCC)CCCCCC)CCCCCCCCC(=O)OC(CCCCCC)CCCCCC [compound 168]	29.29
CCCCCCCOCC(=O)N(CCCCN(C)C)C(CCCCCCCCC(=O)OC(CCCCCC)CCCCCC)CCCCCCCCC(=O)OC(CCCCCC)CCCCCC [compound 169]	38.31

These molecules were tested on immune cell populations in different tissues and organs (assay: Delivery efficiency of eGFP mRNA encapsulating LNP to immune cell populations in different tissues and organs (flow cytometry)). Conditions: eGFP mRNA-LNP intravenous, C57BL/6 mice, 6 hours; spleen, axillary lymph nodes, peripheral blood, bone marrow, lungs, liver; FIGS. 1A to 1F.
Assay type: in vivo
Method: C57BL/6 mice (3 mice per group) were intravenously injected with eGFP mRNA encapsulating LNP. After 6 hours, the mice were dissected, and the spleen, axillary lymph nodes, peripheral blood, bone marrow, lungs and liver were collected to prepare single-cell suspensions of various tissues and organs. After blocking with Fe blocking antibodies and surface staining with fluorescent-labeled antibodies, sample analysis was conducted by flow cytometry to analyze the expression levels of eGFP in various immune cell populations to confirm the delivery efficiency of lipid nanoparticles comprising different amino lipid compounds to immune cell populations in different tissues and organs.

SMILES	Delivery preference to immune cells (eGFP expression in immune cell populations)
CCCCCCC(CCCCCC)OC(=O)CCCCCCCCC(CCCCCCCCC(=O)OC(CCCCCC)CCCCCC)N(CCCN(C)C)C(=O)CCCOCCCCC [compound 130]	clear delivery preference to immune cells in various tissues and organs
CCCCCCOCCCC(=O)N(CCCN(C)C)C(CCCCCCCCC(=O)OC(CCCCCC)CCCCCC)CCCCCCCCC(=O)OC(CCCCCC)CCCCCC [compound 131]	clear delivery preference to immune cells in various tissues and organs
CCCCCCCCOCCCC(=O)N(CCCN(C)C)C(CCCCCCCCC(=O)OC(CCCCCC)CCCCCC)CCCCCCCCC(=O)OC(CCCCCC)CCCCCC [compound 133]	clear delivery preference to immune cells in various tissues and organs
